In assay [1] the target is T1, recombinant human Estrogen Receptor alpha ligand binding domain, residues 307-554 (ER alpha-LBD (GST)) (Homo sapiens, UniProt P03372).
T1 construct: made in house
T1 sequence (P03372 307-554): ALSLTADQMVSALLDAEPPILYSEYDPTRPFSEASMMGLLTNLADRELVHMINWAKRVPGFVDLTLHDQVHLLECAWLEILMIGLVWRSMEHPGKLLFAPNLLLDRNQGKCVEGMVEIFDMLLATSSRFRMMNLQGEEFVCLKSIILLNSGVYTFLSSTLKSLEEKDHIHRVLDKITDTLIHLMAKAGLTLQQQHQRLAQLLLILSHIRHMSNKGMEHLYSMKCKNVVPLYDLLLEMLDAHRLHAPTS
Put plainly: ERα binding assay (LanthaScreen TR-FRET competition). Particulars: TR-FRET competition with Fluormone ES2 tracer, 4 hours at room temperature; single experiment or average of two or more. Here is the method: The ability of compounds to bind to isolated Estrogen Receptor Alpha Ligand binding domain (ER alpha-LBD (GST)) was assessed in competition assays using a LanthaScreen™ Time-Resolved Fluorescence Resonance Energy Transfer (TR-FRET) detection end-point. For the LanthaScreen TR-FRET endpoint, a suitable fluorophore (Fluormone ES2, ThermoFisher, Product code P2645) and recombinant human Estrogen Receptor alpha ligand binding domain, residues 307-554 (expressed and purified in-house) were used to measure compound binding. The assay principle is that ER alpha-LBD (GST) is added to a fluorescent ligand to form a receptor/fluorophore complex. A terbium-labelled anti-GST antibody (Product code PV3551) is used to indirectly label the receptor by binding to its GST tag, and competitive binding is detected by a test compound's ability to displace the fluorescent ligand, resulting in a loss of TR-FRET signal between the Tb-anti-GST antibody and the tracer. The assay was performed as follows with all reagent additions carried out using the Beckman Coulter BioRAPTR FRD microfluidic workstation: • 1. Acoustic dispense 120 nL of the test compound into a black low volume 384 well assay plates. • 2. Prepare 1×ER alpha-LBD/Tb-antiGST Ab in ES2 screening buffer and incubate for 15 minutes. • 3. Dispense 6 μL of the […] reagent into each well of the assay plate followed by 6 μL of Fluorophore reagent into each well of the assay plate • 4. Cover the assay plate to protect the reagents from light and evaporation, and incubate at room temperature for 4 hours. • 5. Excite at 337 nm and measure the fluorescent emission signal of each well at 490 nm and 520 nm using the BMG PheraSTAR.
Compounds were dosed directly from a compound source microplate containing serially diluted compound (4 wells containing 10 mM, […] and 10 nM final compound respectively) to an assay microplate using the Labcyte Echo 550. The Echo 550 is a liquid handler that uses acoustic technology to perform direct microplate-to-microplate transfers of DMSO compound solutions and the system can be programmed to transfer multiple small nL volumes of compound from the different source plate wells to give the desired serial dilution of compound in the assay which is then back-filled to normalise the DMSO concentration across the dilution range.
In total 120 nL of compound plus DMSO were added to each well and compounds were tested in a 12-point concentration response format over a final compound concentration range of 10, 2.917, 1.042, 0.2083, 0.1, 0.0292, 0.0104, 0.002083, 0.001, 0.0002917, 0.0001042, and 0.00001 μM respectively. TR-FRET dose response data obtained with each compound was exported into a suitable software package (such as Origin or Genedata) to perform curve fitting analysis. Competitive ER alpha binding was expressed as an IC50 value. This was determined by calculation of the concentration of compound that was required to give a 50% reduction in tracer compound binding to ER alpha-LBD.

Assay [2] deals with T2, Estrogen Receptor (ERα) in MCF-7 human ductal carcinoma breast cell line (Homo sapiens, UniProt P03372).
T2 construct: endogenous in cells; host or cells: MCF-7
T2 sequence (P03372 1-595): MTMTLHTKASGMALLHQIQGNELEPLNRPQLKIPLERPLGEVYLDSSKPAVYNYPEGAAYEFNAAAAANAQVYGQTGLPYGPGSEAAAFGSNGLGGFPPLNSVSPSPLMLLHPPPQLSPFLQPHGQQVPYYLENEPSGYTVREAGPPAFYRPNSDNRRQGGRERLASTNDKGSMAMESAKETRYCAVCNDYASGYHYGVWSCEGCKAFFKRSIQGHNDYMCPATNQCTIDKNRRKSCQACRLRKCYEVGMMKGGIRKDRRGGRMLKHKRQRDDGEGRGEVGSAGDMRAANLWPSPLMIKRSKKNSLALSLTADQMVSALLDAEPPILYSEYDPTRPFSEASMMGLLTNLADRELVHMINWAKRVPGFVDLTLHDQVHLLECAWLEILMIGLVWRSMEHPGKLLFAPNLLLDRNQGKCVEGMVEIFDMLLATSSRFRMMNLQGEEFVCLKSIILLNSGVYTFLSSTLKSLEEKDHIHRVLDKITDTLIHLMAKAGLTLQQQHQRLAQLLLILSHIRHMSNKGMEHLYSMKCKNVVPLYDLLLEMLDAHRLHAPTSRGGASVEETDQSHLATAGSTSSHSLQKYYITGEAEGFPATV
Put plainly: MCF-7 ER degradation assay (cell based immuno-fluorescence). As to conditions: MCF-7 cells; for ER degradation ≥ 90% at 0.3 μM: ER degradation by fulvestrant at 0.3 μM is defined as 100%; for DC50: 18-22 hours incubation, 50% reduction of ERα expression, single experiment or average of two or more, read-out: MCF-7 ER degradation IC50. In a few lines:
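MCF-7 human ductal carcinoma breast cells were seeded at 3.75×10^4 cells per mL (40 μL per well) in 384 well plates with phenol red free DMEM containing 2 mM L-Glutamine and 5% (v/v) Charcoal/Dextran treated foetal calf serum. After overnight culture, compounds were acoustically dispensed, incubated 18-22 hours, then cells were formaldehyde-fixed and immunostained for ERα.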

Usually IC50 stands for the point on the concentration scale where inhibition reaches its midpoint. For `Cc1ncsc1-c1ccc(CNC(=O)[C@@H]2C[C@@H](O)CN2C(=O)[C@@H](NC(=O)COCCOCCOCCOc2cc(F)c([C@@H]3c4[nH]c5ccccc5c4C[C@@H](C)N3CC(C)(C)F)c(F)c2)C(C)(C)C)cc1` [Example 38, (2S,4R)-1-((S)-2-(tert-Butyl)-14-(3,5-difluoro-4-((1R,3R)-2-(2-fluoro-2-methylpropyl)-3-methyl-2,3,4,9-tetrahydro-1H-pyrido[3,4-b]indol-1-yl)phenoxy)-4-oxo-6,9,12-trioxa-3-azatetradecanoyl)-4-hydroxy-N-(4-(4-methylthiazol-5-yl)benzyl)pyrrolidine-2-carboxamide], the IC50 in assay [1] came out at 0.7 nM. Moreover, the “ER degradation ≥ 90% at 0.3 μM” value in assay [2] was “••”.
The like results for `Cc1ncsc1-c1ccc(CNC(=O)[C@@H]2C[C@@H](O)CN2C(=O)[C@@H](NC(=O)COCCOCCOc2cc(F)c([C@@H]3c4[nH]c5ccccc5c4C[C@@H](C)N3CC(C)(C)F)c(F)c2)C(C)(C)C)cc1` [Example 39, (2S,4R)-1-((S)-2-(2-(2-(2-(3,5-difluoro-4-((R,3R)-2-(2-fluoro-2-methylpropyl)-3-methyl-2,3,4,9-tetrahydro-1H-pyrido[3,4-b]indol-1-yl)phenoxy)ethoxy)ethoxy)acetamido)-3,3-dimethylbutanoyl)-4-hydroxy-N-(4-(4-methylthiazol-5-yl)benzyl)pyrrolidine-2-carboxamide] were, in that order, 0.7 nM and “•”.
For `Cc1ncsc1-c1ccc(CNC(=O)[C@@H]2C[C@@H](O)CN2C(=O)[C@@H](NC(=O)COCCCOc2cc(F)c([C@@H]3c4[nH]c5ccccc5c4C[C@@H](C)N3CC(C)(C)F)c(F)c2)C(C)(C)C)cc1` [Example 41, (2S,4R)-1-((S)-2-(2-(3-(3,5-difluoro-4-((1R,3R)-2-(2-fluoro-2-methylpropyl)-3-methyl-2,3,4,9-tetrahydro-1H-pyrido[3,4-b]indol-1-yl)phenoxy)propoxy)acetamido)-3,3-dimethylbutanoyl)-4-hydroxy-N-(4-(4-methylthiazol-5-yl)benzyl)pyrrolidine-2-carboxamide], the IC50 in assay [1] is 0.7 nM. Moreover, the DC50 in assay [2] is 1.7 nM.
The like results for `Cc1ncsc1-c1ccc(CNC(=O)[C@@H]2C[C@@H](O)CN2C(=O)[C@@H](NC(=O)CN2CC3(CCN(CCOc4cc(F)c([C@@H]5c6[nH]c7ccccc7c6C[C@@H](C)N5CC(C)(C)F)c(F)c4)CC3)C2)C(C)(C)C)cc1` [Example 42, (2S,4R)-1-((S)-2-(2-(7-(2-(3,5-difluoro-4-((1R,3R)-2-(2-fluoro-2-methylpropyl)-3-methyl-2,3,4,9-tetrahydro-1H-pyrido[3,4-b]indol-1-yl)phenoxy)ethyl)-2,7-diazaspiro[3.5]nonan-2-yl)acetamido)-3,3-dimethylbutanoyl)-4-hydroxy-N-(4-(4-methylthiazol-5-yl)benzyl)pyrrolidine-2-carboxamide] were, in that order, 1.3 nM and 1.9 nM.
Taken in the same sequence, the figures for `Cc1ncsc1-c1ccc(CNC(=O)[C@@H]2C[C@@H](O)CN2C(=O)[C@@H](NC(=O)CN2CCC3(CCN(CCOc4cc(F)c([C@@H]5c6[nH]c7ccccc7c6C[C@@H](C)N5CC(C)(C)F)c(F)c4)CC3)CC2)C(C)(C)C)cc1` [Example 43, (2S,4R)-1-((S)-2-(2-(9-(2-(3,5-difluoro-4-((R,3R)-2-(2-fluoro-2-methylpropyl)-3-methyl-2,3,4,9-tetrahydro-1H-pyrido[3,4-b]indol-1-yl)phenoxy)ethyl)-3,9-diazaspiro[5.5]undecan-3-yl)acetamido)-3,3-dimethylbutanoyl)-4-hydroxy-N-(4-(4-methylthiazol-5-yl)benzyl)pyrrolidine-2-carboxamide] were 2.3 nM and 4.8 nM.
The like results for `Cc1ncsc1-c1ccc(CNC(=O)[C@@H]2C[C@@H](O)CN2C(=O)[C@@H](NC(=O)CN2CCC3(CC2)CCN(C(=O)COc2cc(F)c([C@@H]4c5[nH]c6ccccc6c5C[C@@H](C)N4CC(C)(C)F)c(F)c2)CC3)C(C)(C)C)cc1` [Example 44, (2S,4R)-1-((S)-2-(2-(9-(2-(3,5-difluoro-4-((R,3R)-2-(2-fluoro-2-methylpropyl)-3-methyl-2,3,4,9-tetrahydro-1H-pyrido[3,4-b]indol-1-yl)phenoxy)acetyl)-3,9-diazaspiro[5.5]undecan-3-yl)acetamido)-3,3-dimethylbutanoyl)-4-hydroxy-N-(4-(4-methylthiazol-5-yl)benzyl)pyrrolidine-2-carboxamide] were, in that order, 1.3 nM and 1.8 nM.
On to `Cc1ncsc1-c1ccc(CNC(=O)[C@@H]2C[C@@H](O)CN2C(=O)[C@@H](NC(=O)COCCCCCN2CC(Oc3cc(F)c([C@@H]4c5[nH]c6ccccc6c5C[C@@H](C)N4CC(C)(C)F)c(F)c3)C2)C(C)(C)C)cc1` [Example 46, (2S,4R)-1-((S)-2-(2-((5-(3-(3,5-difluoro-4-((1R,3R)-2-(2-fluoro-2-methylpropyl)-3-methyl-2,3,4,9-tetrahydro-1H-pyrido[3,4-b]indol-1-yl)phenoxy)azetidin-1-yl)pentyl)oxy)acetamido)-3,3-dimethylbutanoyl)-4-hydroxy-N-(4-(4-methylthiazol-5-yl)benzyl)pyrrolidine-2-carboxamide], for which, in assay [1], the IC50 was 0.8 nM. Further, the DC50 in assay [2] came out at 2 nM.
As for `Cc1ncsc1-c1ccc(CNC(=O)[C@@H]2C[C@@H](O)CN2C(=O)[C@@H](NC(=O)COCC#CC#CCOc2cc(F)c([C@@H]3c4[nH]c5ccccc5c4C[C@@H](C)N3CC(C)(C)F)c(F)c2)C(C)(C)C)cc1` [Example 50, (2S,4R)-1-((S)-2-(2-((6-(3,5-difluoro-4-((1R,3R)-2-(2-fluoro-2-methylpropyl)-3-methyl-2,3,4,9-tetrahydro-1H-pyrido[3,4-b]indol-1-yl)phenoxy)hexa-2,4-diyn-1-yl)oxy)acetamido)-3,3-dimethylbutanoyl)-4-hydroxy-N-(4-(4-methylthiazol-5-yl)benzyl)pyrrolidine-2-carboxamide], the IC50 in assay [1] is 1.2 nM. Moreover, the DC50 in assay [2] was 6.6 nM.

Values taken from patent publication US10519152B2, “Compounds and their use in treating cancer” (AstraZeneca AB, priority 2017, dated 2019).
